We go through ten molecules from patent US20240228465A1, “SUBSTITUTED PYRIDINE N-OXIDE DERIVATIVES USEFUL AS A FACTOR XIA INHIBITORS” (Janssen Pharmaceutica NV, priority 2021, published 2024).

What is called IC50 is the concentration needed to halve the response being measured.

Structures are written as SMILES. Read-outs that look alike come from different tables or passages of the source.

The target in one assay is Factor XIa (Homo sapiens, UniProt P03951). The assay is described as follows: Factor XIa inhibition assay utilizing a fluorophore-quencher pair peptide substrate (FLINT). It counts as biochemical. The note with it: 30 min preincubation. The text has this:
Biological Example 1: Factor XIa Inhibition Assay Utilizing a Fluorophore-Quencher Pair Peptide Substrate
A fluorescence intensity (FLINT) based assay was used to monitor inhibition of Factor XIa. The peptide substrate, 5Fam-KLTRAETV-K5Tamra (purchased from New England Peptide) was chosen based on the […]. Conversion of zymogen […]. The custom peptide used in this assay was based on the Arg146 cleavage site of FXI. The peptide substrate was designed with a fluorophore-quencher pair, where the fluorescence is quenched until FXIa cleaves the 8-mer peptide after the Arg residue. The substrate KM was fit to a substrate inhibition model whereby kcat=0.86 s^−1, KM=12.4 μM, Ki=61.6 μM with an enzymatic efficiency, and kcat/KM=69523 M^−1s^−1.
The Factor XIa FLINT assay was used with the following 5Fam-KLTRAETV-K5Tamra assay buffer: 50 mM Tris, pH 7.5, 100 mM NaCl, 5 mM CaCl2, 0.1 mg/mL BSA, 0.03% CHAPS. Assay buffer was prepared by mixing all ingredients fresh. 5Fam-KLTRAETV-K5Tamra peptide substrate was first prepared at 10 mM in 100% DMSO, then diluted to 3 mM in 100% DMSO. Assay buffer was then added directly to the 3 mM stock of substrate to prepare the 30 μM 2× working concentration (15 μM final concentration). The 2× Factor XIa stock solution was prepared by diluting 6.562 μM stock in 1× assay buffer for a […].
Test compound(s) were run in an 11-point, 3-fold serial dilution with a final top compound concentration of 100 nM. Final DMSO in assay was 2%. FXIa was preincubated with compound for 30-minutes and then substrate was added to initiate the reaction. The assay was run with either end point (EP) reads at 30 min or kinetic (KIN) reads at 5 min intervals over 30 minutes. The time course was linear using 100 μM FXIa greater than 30 minutes. More specifically, the assay was run as follows: • 100 nL of 0.01 mM test compound was dispensed into black 384-well non-binding Greiner BioOne 784900 plate for 0.1 μM final concentration; • 5 μL of 1× assay buffer was dispensed to column 24 (low control) and 5 μL 2× Factor XIa solution was dispensed to columns 1-23 (column 23 high control); • the plate was centrifuged with a “cover” plate at 500 rpm for 1 min • the plate was pre-incubated for 30 minutes at room temperature with plate covered; • 5 μL of 2× 5Fam-KLTRAETV-K5Tamra peptide substrate was dispensed into the entire plate, columns 1-24; • the plate was centrifuged with a “cover” plate at 500 rpm for 1 min; • the plate was read monitoring fluorescence intensity on the BMG PHERAStar at room temperature, using fluorescence module 485 nm/520 nm.
(§1) Percent inhibition (IC50) curves were generated per compound tested, and data was analyzed using a 4-parameter logistic fit using GeneData Screener. The relative fluorescence unit (RFU) values were normalized to percent inhibition using the following equation:
[formula] • where LC—low control=mean signal of no Factor XIa or 100% inhibition of Factor XIa; HC—high control=mean signal of Factor XIa+5Fam-KLTRAETV-K5Tamra peptide substrate with DMSO only.
(§2) An 11-point dose response curve for the test compound(s) was generated using GENDATA to determine IC50 value based on the following equation:
[formula] • where Y is the % inhibition in the presence of X inhibitor concentration, Top=high control=mean signal of Factor XIa+5Fam-KLTRAETV-K5Tamra peptide substrate with DMSO only; Bottom=low control—mean signal of no Factor XIa or 100% inhibition of Factor XIa; HillSlope—Hill coefficient; and IC50=concentration of compound with 50% inhibition in relation to top/high control.
Representative compounds of formula (I) of the present invention were tested according to the procedure described in Biological Example 1 and Biological Example 2 above, with results as listed in Table 3, below. […]

In another assay the target is human plasma kallikrein (Homo sapiens, UniProt P03952). The assay is described as follows: Kallikrein inhibition assay utilizing a quenched AMC peptide substrate (FLINT). It counts as biochemical. The protocol:
Biological Example 2: Kallikrein Inhibition Assay Utilizing a Quenched AMC Peptide Substrate
A fluorescence intensity (FLINT) based assay was used to monitor inhibition of human plasma kallikrein. The peptide substrate, Z-Gly-Pro-Arg-AMC (Purchased from Bachem; Catalog #I-1150) was chosen based on its relatively low KM for kallikrein which enables running the assay at lower substrate concentrations to control background fluorescence. The kinetic parameters for this substrate were determined by fitting titration data to the Michaelis-Menten equation yielding a KM=40 μm, kcat=0.76 s^−1, and kcat/KM=18932 M^−1s^−1.
The Kallikrein FLINT assay was used with the following Z-Gly-Pro-Arg-AMC assay buffer: 50 mM Tris, pH 7.5, 100 mM NaCl, 5 mM CaCl2, 0.1 mg/mL BSA, 0.03% CHAPS. Assay buffer was prepared by mixing all ingredients fresh. 2× Z-Gly-Pro-Arg-AMC peptide substrate was prepared by diluting 10 mM stock into 1× assay buffer for a 100 μM working concentration (50 μM final concentration). The 2× kallikrein stock solution was prepared by diluting 14.76 μM stock in 1× assay buffer for a 4 nM working stock solution (2 nM final concentration).
Test compound(s) were run in an 11-point, 3-fold serial dilution with a final top compound concentration of 1 μM. Final DMSO in assay was 2%. Plasma kallikrein was pre-incubated for 30-minute with compound and then 50 μM substrate was added to initiate the reaction. The assay was run with either end point (EP) reads at 30 min or kinetic (KIN) reads at 5 min intervals over 30 minutes. The time course was linear using 2 nM kallikrein greater than 30 minutes. More specifically, the assay was run as follows: • 100 nL of 0.1 mM test compound was dispensed into black 384-well non-binding Greiner BioOne 784900 plate for 1 μM final concentration; • 5 μL of 1× assay buffer was dispensed to columns 24 (low control) and 5 μL 2× human kallikrein enzyme solution was dispensed to columns 1-23 (column 23 high control); • the plate was centrifuged with a “cover” plate at 500 rpm for 1 min • the plate was pre-incubated for 30 minutes at room temperature with plate covered; • 5 μL of 2× Z-Gly-Pro-Arg-AMC peptide substrate was dispensed into the entire plate, columns 1-24; • the plate was centrifuged with a “cover” plate at 500 rpm for 1 min; • the plate was read monitoring fluorescence intensity on the BMG PHERAStar at room temperature, using fluorescence module 340 nm/440 nm.
as §1
% inhibition=((HC−LC)−(compound−LC)/(HC−LC))*100 • where LC—low control=mean signal of human kallikrein enzyme or 100% inhibition of human kallikrein enzyme; HC—high control=mean signal of Factor XIa+Z-Gly-Pro-Arg-AMC peptide substrate with DMSO only.
as §2
Y=Bottom+(Top−Bottom)/(1+10^((log IC50−X)*HillSlope)) • where Y is the % inhibition in the presence of X inhibitor concentration, Top=high control=mean signal of human kallikrein enzyme+Z-Gly-Pro-Arg-AMC peptide substrate with DMSO only; Bottom=low control—mean signal of no human kallikrein enzyme or 100% inhibition of human kallikrein enzyme; HillSlope—Hill coefficient; and IC50=concentration of compound with 50% inhibition in relation to top/high control.
Representative compounds of formula (I) of the present invention were tested according to the procedure described in Biological Example 1 and Biological Example 2 above, with results as listed in Table 3, below. Results listed in the (ER) column were measured using endpoint reads where a single fluorescence reading was measured for each well at a 30 min timepoint. […]

[1] abbreviates: kinetic reads at 5 min intervals over 30 min, read-out: FXIa (KIN) IC50.
Where [2] appears, read: kinetic reads at 5 min intervals over 30 min, 30 min preincubation, read-out: Kallikrein (KIN) IC50.
Setting [3] is: kinetic reads, unit μM, read-out: Kallikrein (KIN) IC50.
Setting [4] is: end point read at 30 min, read-out: FXIa (EP) IC50.
Where [5] appears, read: end point read at 30 min, 30 min preincubation, read-out: Kallikrein (EP) IC50.

Sequence of human plasma kallikrein (P03952 391-638 limits assumed): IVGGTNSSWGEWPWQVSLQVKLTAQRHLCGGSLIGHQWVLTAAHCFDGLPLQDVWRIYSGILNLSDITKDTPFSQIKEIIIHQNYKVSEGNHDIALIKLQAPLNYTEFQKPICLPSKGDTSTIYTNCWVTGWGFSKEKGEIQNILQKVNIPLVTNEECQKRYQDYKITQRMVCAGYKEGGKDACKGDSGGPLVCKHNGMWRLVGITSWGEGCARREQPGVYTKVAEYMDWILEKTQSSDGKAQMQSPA
Sequence of human plasma kallikrein (P03952 20-390 partner limits assumed): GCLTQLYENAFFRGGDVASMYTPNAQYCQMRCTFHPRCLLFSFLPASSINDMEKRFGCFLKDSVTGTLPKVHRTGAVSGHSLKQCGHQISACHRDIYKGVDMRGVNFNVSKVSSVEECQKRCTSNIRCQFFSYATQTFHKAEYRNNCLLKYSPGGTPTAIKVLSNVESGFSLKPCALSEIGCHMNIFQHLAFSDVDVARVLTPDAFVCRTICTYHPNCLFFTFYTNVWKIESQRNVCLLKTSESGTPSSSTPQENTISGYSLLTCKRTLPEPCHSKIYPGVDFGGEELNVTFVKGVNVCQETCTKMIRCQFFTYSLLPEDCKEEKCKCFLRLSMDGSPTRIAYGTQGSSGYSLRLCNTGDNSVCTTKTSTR
Sequence of Factor XIa (P03951 388-625 limits assumed): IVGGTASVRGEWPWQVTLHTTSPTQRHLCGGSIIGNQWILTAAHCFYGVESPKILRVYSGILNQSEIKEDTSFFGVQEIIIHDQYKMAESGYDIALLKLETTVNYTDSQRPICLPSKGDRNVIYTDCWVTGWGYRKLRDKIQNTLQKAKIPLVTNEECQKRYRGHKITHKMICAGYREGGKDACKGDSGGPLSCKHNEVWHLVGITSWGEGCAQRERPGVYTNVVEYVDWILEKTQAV
Sequence of Factor XIa (P03951 19-387 partner limits assumed): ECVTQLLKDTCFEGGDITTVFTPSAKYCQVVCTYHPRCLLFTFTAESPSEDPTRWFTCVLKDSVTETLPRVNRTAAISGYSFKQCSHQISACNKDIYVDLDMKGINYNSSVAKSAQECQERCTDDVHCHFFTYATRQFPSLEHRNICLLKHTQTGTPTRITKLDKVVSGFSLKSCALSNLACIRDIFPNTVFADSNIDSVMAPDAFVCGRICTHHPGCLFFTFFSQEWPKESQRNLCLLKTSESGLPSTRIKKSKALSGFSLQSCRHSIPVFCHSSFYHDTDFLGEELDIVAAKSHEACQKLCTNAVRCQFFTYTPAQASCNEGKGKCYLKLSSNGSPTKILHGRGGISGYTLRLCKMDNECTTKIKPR

As to `[O-][n+]1cc(-c2c(-n3cc(C(F)(F)F)nn3)ccc(Cl)c2F)ccc1[C@@H](CCOC(F)F)n1cnc(-c2ncnn2C(F)F)c1` [M7, (R)-5-(3-Chloro-2-fluoro-6-(4-(trifluoromethyl)-1H-1,2,3-triazol-1-yl)phenyl)-2-(3-(difluoromethoxy)-1-(4-(1-(difluoromethyl)-1H-1,2,4-triazol-5-yl)-1H-imidazol-1-yl)propyl)pyridine 1-oxide], the results for the half-maximal inhibitory concentration (IC50) at Factor XIa (setting [1]) and at human plasma kallikrein (setting [2]) were roughly 33 nM and 0.338 µM, respectively.

As to `Cn1nncc1-c1cn([C@@H](CCOC(F)F)c2ccc(-c3c(-n4cc(C(F)(F)F)nn4)ccc(Cl)c3F)c[n+]2[O-])cn1` [M8, (S)-5-(3-Chloro-2-fluoro-6-(4-(trifluoromethyl)-1H-1,2,3-triazol-1-yl)phenyl)-2-(3-(difluoromethoxy)-1-(4-(1-methyl-1H-1,2,3-triazol-5-yl)-1H-imidazol-1-yl)propyl)pyridine 1-oxide], the IC50 on Factor XIa (setting [1]) was greater than 200 nM; on human plasma kallikrein (setting [3]), greater than 20 µM.

`Cn1ncnc1-c1cn(C(CCOC(F)F)c2ccc(-c3c(-n4cc(C(F)(F)F)nn4)ccc(Cl)c3F)c[n+]2[O-])cn1` (centres unmarked) [M9, 5-(3-Chloro-2-fluoro-6-(4-(trifluoromethyl)-1H-1,2,3-triazol-1-yl)phenyl)-2-(3-(difluoromethoxy)-1-(4-(1-methyl-1H-1,2,4-triazol-5-yl)-1H-imidazol-1-yl)propyl)pyridine 1-oxide]: the IC50 worked out at 4.3 nM on Factor XIa (setting [1]) and 0.543 µM on human plasma kallikrein (setting [2]).

With `Cn1nncc1-c1cn([C@H](CCOC(F)F)c2ccc(-c3c(-n4cc(C(F)(F)F)nn4)ccc(Cl)c3F)c[n+]2[O-])cn1` [M10, (R)-5-(3-Chloro-2-fluoro-6-(4-(trifluoromethyl)-1H-1,2,3-triazol-1-yl)phenyl)-2-(3-(difluoromethoxy)-1-(4-(1-methyl-1H-1,2,3-triazol-5-yl)-1H-imidazol-1-yl)propyl)pyridine 1-oxide], the results for the half-inhibitory concentration (IC50) on Factor XIa (setting [1]) and at human plasma kallikrein (setting [2]) were 0.5 nM and 0.0489 µM, respectively.

As to `Cn1nncc1-c1cn([C@@H](CCOC(F)F)c2ccc(-c3c(-n4cc(Cl)nn4)ccc(Cl)c3F)c[n+]2[O-])cn1` [M11, (S)-5-(3-Chloro-6-(4-chloro-1H-1,2,3-triazol-1-yl)-2-fluorophenyl)-2-(3-(difluoromethoxy)-1-(4-(1-methyl-1H-1,2,3-triazol-5-yl)-1H-imidazol-1-yl)propyl)pyridine 1-oxide], the half-inhibitory concentration (IC50) on Factor XIa (setting [1]) was greater than 200 nM; on human plasma kallikrein (setting [3]), greater than 20 µM.

For `Cn1nncc1-c1cn([C@H](CCOC(F)F)c2ccc(-c3c(-n4cc(Cl)nn4)ccc(Cl)c3F)c[n+]2[O-])cn1` [M12, (R)-5-(3-Chloro-6-(4-chloro-1H-1,2,3-triazol-1-yl)-2-fluorophenyl)-2-(3-(difluoromethoxy)-1-(4-(1-methyl-1H-1,2,3-triazol-5-yl)-1H-imidazol-1-yl)propyl)pyridine 1-oxide], the IC50 came to 0.3 nM on Factor XIa (setting [1]) and 0.0159 µM at human plasma kallikrein (setting [2]).

As for `[O-][n+]1cc(-c2c(-n3cnnn3)ccc(Cl)c2F)ccc1[C@H](CCOC(F)F)n1cnc(-c2cnnn2C(F)F)c1` [M13, (S)-5-(3-Chloro-2-fluoro-6-(1H-tetrazol-1-yl)phenyl)-2-(3-(difluoromethoxy)-1-(4-(1-(difluoromethyl)-1H-1,2,3-triazol-5-yl)-1H-imidazol-1-yl)propyl)pyridine 1-oxide], the figures for the half-maximal inhibitory concentration (IC50) at Factor XIa (setting [1]) and at human plasma kallikrein (setting [3]) were greater than 200 nM and greater than 2 µM, respectively.

In the case of `[O-][n+]1cc(-c2c(-n3cnnn3)ccc(Cl)c2F)ccc1[C@@H](CCOC(F)F)n1cnc(-c2cnnn2C(F)F)c1` [M14, (R)-5-(3-Chloro-2-fluoro-6-(1H-tetrazol-1-yl)phenyl)-2-(3-(difluoromethoxy)-1-(4-(1-(difluoromethyl)-1H-1,2,3-triazol-5-yl)-1H-imidazol-1-yl)propyl)pyridine 1-oxide], the IC50 worked out at 0.5 nM on Factor XIa (setting [1]) and 0.029 µM on human plasma kallikrein (setting [2]).

For the molecule `O=C(O)c1ccc(-c2cn(C(CC3CC3)c3ccc(-c4cc(Cl)ccc4-n4cnnn4)c[n+]3[O-])nn2)cc1` (centres unmarked) [T1, 2-(1-(4-(4-Carboxyphenyl)-1H-1,2,3-triazol-1-yl)-2-cyclopropylethyl)-5-(5-chloro-2-(1H-tetrazol-1-yl)phenyl)pyridine 1-oxide], the concentration for half-maximal inhibition (IC50) on Factor XIa (setting [4]) was 1.6 nM; on human plasma kallikrein (setting [5]), 0.0835 µM.

On to `O=C(NC1CC1)c1ccc(-c2cn(C(CC3CC3)c3ccc(-c4cc(Cl)ccc4-n4cnnn4)c[n+]3[O-])nn2)cc1` (centres unmarked) [T2, 5-(5-Chloro-2-(1H-tetrazol-1-yl)phenyl)-2-(2-cyclopropyl-1-(4-(4-(cyclopropylcarbamoyl)phenyl)-1H-1,2,3-triazol-1-yl)ethyl)pyridine 1-oxide], for which the values for the IC50 at Factor XIa (setting [4]) and at human plasma kallikrein (setting [5]) were 38.1 nM and 0.367 µM, respectively.
